Where a SMILES comes first, the peptide text is derived from it.

The record followed here is patent US20080009025A1, “PROTEIN KINASE REGULATION” (priority 1999, published 2008).

In one assay the target is T1, GST-PDK1 (Homo sapiens, UniProt O15530).
T1 construct: Full length PDK1 (residues 1-556); made in house; host or cells: 293 cells
T1 sequence (O15530 1-556): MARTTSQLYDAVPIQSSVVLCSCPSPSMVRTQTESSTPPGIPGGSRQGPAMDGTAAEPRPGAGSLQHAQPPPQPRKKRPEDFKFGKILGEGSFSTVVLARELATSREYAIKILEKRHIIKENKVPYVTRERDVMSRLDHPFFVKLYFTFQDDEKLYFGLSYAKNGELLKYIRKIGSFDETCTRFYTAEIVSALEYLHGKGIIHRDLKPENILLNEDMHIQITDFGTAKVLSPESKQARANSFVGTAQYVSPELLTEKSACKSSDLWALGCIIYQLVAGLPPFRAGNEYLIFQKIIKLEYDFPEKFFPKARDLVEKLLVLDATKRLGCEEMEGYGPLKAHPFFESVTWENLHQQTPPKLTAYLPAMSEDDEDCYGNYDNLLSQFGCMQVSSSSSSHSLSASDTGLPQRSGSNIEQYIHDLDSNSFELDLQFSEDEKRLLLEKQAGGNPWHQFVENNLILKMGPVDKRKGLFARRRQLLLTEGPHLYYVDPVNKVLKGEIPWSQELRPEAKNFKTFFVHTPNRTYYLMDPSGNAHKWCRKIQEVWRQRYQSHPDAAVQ
Put plainly: Thermal denaturation of PDK1 (TM50). Type of assay: biochemical. The conditions noted are these: wild type GST-PDK1; heated 2 min. The text has this:
A further aspect of the invention provides the use of an interacting polypeptide as defined above, for example comprising the amino acid sequence Phe/Tyr-Xaa-Xaa-Phe/Tyr or an interacting compound of the invention in a method of stabilising a protein kinase having a hydrophobic pocket in the position equivalent to the hydrophobic pocket of Protein Kinase A (PKA) that is defined by residues including Lys76, Leu116, Val80 and/or Lys111 of full-length mouse PKA, wherein the protein kinase is exposed to the compound or polypeptide. Stabilisation may be measured by measuring the TM50 value. The TM50 value is the temperature at which heating for two minutes produces a 50% reduction in protein kinase activity (measured using any appropriate substrate) compared with the protein kinase activity before such heating, as described in Example 2. An increase in the TM50 value, for example by at least about 1, 2, 3, 4, 5, 6, 7, 8, 9, 10 or 15° C. indicates stabilisation.
FIG. 12. PDK1 is activated and stabilised through its interaction with PIFtide. (A) GST-PDK1 activity was measured in the presence of increasing concentrations of wild type (wt) PIFtide (closed circles) or a mutant D978A PIFtide (open circles) using the synthetic peptide substrate termed T308tide, as described in Material and Methods. The data was fitted to a hyperbola using the Kaleidagraph™ software. […]

A further assay addresses T2, PDK1-wt (Homo sapiens, UniProt O15530).
T2 construct: made in house; host or cells: human embryonic kidney 293 cells
T2 sequence (O15530 1-556): T1 sequence (O15530 1-556)
As to the kind of experiment: Phosphorylation of AGC kinase substrates by PDK1 (32P, PhosphoImager). Type of assay: biochemical. To be noted: hydrophobic motif Phe to Ala mutants. The protocol:
Phosphorylation of AGC kinase substrates by PDK1. The phosphorylation of PDK1 substrates was performed in a final volume of 20 μl in a buffer containing 50 mM Tris-HCl pH 7.5, 0.1% (by vol) 2-mercaptoethanol, 10 mM magnesium chloride, 100 μM [γ-^32P]ATP (˜1000 c.p.m./pmol), 0.5 μM microcystin-LR, 0.6 μM AGC kinase substrate and 0.6 to 30 nM wild type PDK1 or the indicated mutant of PDK1.
Relative phosphorylation of PDK1 substrates. PDK1 substrates were phosphorylated in vitro, subjected to SDS-PAGE, and radioactivity associated with the bands measured using a Phospho-Imager and known amounts of ATP as standard. The phosphorylation rate of PKB[S473D] in the presence of PtdIns (3,4,5)P3 was 2.6 mol/mol PDK1/min and was taken as the relative value of 100. Average values from a representative experiment performed in duplicates are shown.

The next assay relates to PDK1. As to the kind of experiment: Activation of AGC kinase substrates by PDK1 (Crosstide assay). Type of assay: biochemical, human. The conditions noted are these: for inhibition of the activation of S6K1-T2[T412E] and SGK1[T422D] by PDK1 PIF pocket mutants: PDK1[K115A], [I119A], [Q150A], [L155A]. As for the experimental part:
FIG. 20. Effect of PIFtide on the activation of S6K1 and SGK1 by PDK1 PIF pocket mutants (155A, 115A, 119A, 150A). GST-PDK1, GST-PDK1 L155E, 155A, 115A, 119A and 150A were tested for their ability to activate His-S6K1 412E and GST-SGK1 422D. The phosphorylation and activation of substrates was performed as described in FIG. 17. When PIFtide was included in the reaction, it was pre-incubated on ice for ˜15 min until the reaction was initiated with the addition of ATP-Mg.
Activation of AGC kinase PDK1 substrates. Phosphorylation reactions were carried out as above except that non-radioactive ATP replaced [γ-^32P]ATP. Following 10 min at 30° C., cocktail (30 μl) containing 50 mM Tris-HCl pH 7.5, 0.1% (by vol) 2-mercaptoethanol, 10 mM magnesium chloride, […], 0.5 μM microcystin-LR and 100 μM peptide substrate crosstide (GRPRTSSFAEG) and [γ-^32P]ATP (˜600 c.p.m./pmol). Reactions were stopped by the addition of 25 μl of 0.2 M EDTA pH 8.0, spotted onto P81 phosphocellulose paper, washed and analysed as described for the assay of MAP kinase. The amount of PDK1 was in the assay was varied so that the assay was in the linear range. One unit of activity is deficed as phosphorylation 1 nmol of substrate in 1 min.

Take `CC[C@H](C)[C@H](NC(=O)[C@H](Cc1ccc(O)cc1)NC(=O)[C@H](CC(=O)O)NC(=O)[C@H](Cc1ccccc1)NC(=O)[C@H](CC(=O)O)NC(=O)[C@H](CCCNC(=N)N)NC(=O)[C@H](Cc1ccccc1)NC(=O)[C@H](CCSC)NC(=O)[C@H](CCC(=O)O)NC(=O)[C@H](CCC(N)=O)NC(=O)[C@H](CCC(=O)O)NC(=O)[C@H](CCC(=O)O)NC(=O)[C@H](CCC(=O)O)NC(=O)[C@H](CO)NC(=O)[C@H](CC(C)C)NC(=O)[C@@H](NC(=O)[C@H](CCCNC(=N)N)NC(=O)[C@@H]1CCCN1C(=O)[C@H](CCC(=O)O)NC(=O)[C@@H](N)CCCNC(=N)N)[C@@H](C)CC)C(=O)N[C@@H](C)C(=O)N[C@@H](CC(=O)O)C(=O)N[C@@H](Cc1c[nH]c2ccccc12)C(=O)N[C@@H](CS)C(=O)O` [PIFtide] (H-REPRILSEEEQEMFRDFDYIADWC-OH; N-terminus and C-terminus assumed): the “increase of TM50” value at GST-PDK1 was 8-10 °C. Also, the “basal rate at which PDK1 phosphorylated S6K1[F411A], SGK1[F421A] and ΔPH-PKBα[F472A]” value on PDK1-wt is on record as “not inhibited”. Further, in the assay on PDK1 (2 μM PIFtide), the “inhibition of the activation of S6K1[T412E] by wild type PDK1” value is > 20 fold; the “inhibition of the activation of S6K1-T2[T412E] and SGK1[T422D] by PDK1 PIF pocket mutants” value was ~50%. Also, the “inhibition of the activation of S6K1-T2[T412E] and SGK1[T422D] by PDK1 PIF pocket mutants” value in the assay on PDK1 (35 μM PIFtide) was “over 95%”. Also, the “PDK1's ability to phosphorylate and activate SGK1, ΔPH-PKBα, S6K1[T412E], SGK1[T422D] and ΔPH-PKBα[S473D]” value in the assay with PDK1 (in the presence of PIFtide) is given as “markedly inhibited”.
